# Data taken from patent EP4050002A1, “ANTI-PROLIFERATIVE AGENTS” (First Health Pharmaceuticals B.V., priority 2021, dated 2022).
# Like-named read-outs stand apart in the source and are kept apart here.
# Experiments:
# MDAMB231 cell line = assay: Cytotoxicity, cell count method; type: cell-based, human; conditions: MDAMB231, 72 hours of incubation
# Method: The anti-tumor activity of the compounds of the present invention was evaluated as the effect on the proliferation and survival of tumor cells by counting the number of living cells in presence or absence of the compounds ("cell count method"), and as the effect on the viability and metabolic activity of the cells, by using particular substrates that are converted by cellular enzymes into coloured or luminescent products, proportionally with metabolic activity and state of the cell, such as the MTS tetrazolium compound ("MTS method") or luciferin ("ATP-based method") respectively.
# Cells were seeded at 3 to 5 x 10^4 cells/well density depending on cell lines and maintained at 37°C in 5% CO2. After 24 hours cells were treated with ascending concentrations of the investigational compounds and the reference (5-fluoro-Uracyl) in a range from 0 to 100 µM. Compounds were dissolved in DMSO which final concentration in each well was 0.5% v:v. After 72 h of incubation with compounds, the cells were detached with trypsin and re-suspended in 1 ml of complete medium; the cell number was evaluated using a Z2 Coulter Counter ("cell count method") (Attallah and Johnson, A simple highly sensitive methods for the determination of cell viability using an electronic particle analyzer, Coulter counter J. Immunol. Methods. 1981, 41, 155; Leonardi et al., Activated kinase screening identifies the IKBKE oncogene as a positive regulator of autophagy. Autophagy, 2019, 15, 312). Alternatively, after the 72 hours of incubation with compounds, the MTS solution (CellTiter 96® AQueous One Solution Cell Proliferation Assay) is added to each well and absorbance at 490 nm wavelength is read after 2 hours of incubation ("MTS method"). Results in Tables 8-13, 17, 18 were obtained with the cell count method. Results in Tables 14-15 were obtained with the MTS method. Results in Table 16 were obtained with ATP-based method.
# [1] = Kinetic solubility (turbidimetry); type: physicochemical; conditions: for solubility at 2 h: 37 °C, kinetic from dmso stock; for Absorbance at 620nm: 2 h
# Method: Kinetic solubility was assessed in phosphate buffered saline at pH 7.4 according to the turbidimetry method. Turbidity (precipitation) was measured by absorbance at 620 nm following incubation at 37°C for 2 h. Stock solution of compounds in DMSO were prepared to produce the desired final range of concentrations, then these were added to the buffer to obtain the final test compound concentrations (1 µM, 3 µM, 10 µM, 30 µM, 100 µM), with a final DMSO concentration 1%). Solubility was estimated from the concentration of tested compound that produced a significant increase in absorbance (≥ 0.003 OD at 620 nm) above vehicle control (1% DMSO in water). Miconazole, Reserpine and Propranolol were used as controls.
smiles,measurement,setting,value
"CCCCc1noc(-c2ccc(-c3nnc(-c4cccc(Cl)c4F)o3)cc2)n1 [Compound 1, 3-Butyl-5-(4-(5-(3-chloro-2-fluorophenyl)-1,3,4-oxadiazol-2-yl)phenyl)-1,2,4-oxadiazole]",IC50,"MDAMB231 cell line; Homo sapiens, MDA-MB-231, 72 h",1000 µM
"CCCCc1cn(-c2ccc(-c3nnc(-c4ccccc4)o3)cc2)nn1 [Compound 2, 2-(4-(4-butyl-1H-1,2,3-triazol-1-yl)phenyl)-5-phenyl-1,3,4-oxadiazole]",IC50,"MDAMB231 cell line; Homo sapiens, MDA-MB-231, 72 h",8.11 µM
"CCCCc1cn(-c2ccc(-c3nnc(-c4ccccc4)o3)cc2)nn1 [Compound 3, 2-(4-(4-butyl-1H-1,2,3-triazol-1-yl)phenyl)-5-phenyl-1,3,4-oxadiazole]",IC50,MDAMB231 cell line,6.07 µM
"CCCCc1cn(-c2ccc(-c3nnc(-c4ccccc4C)o3)cc2)nn1 [Compound 4, 2-(4-(4-butyl-1H-1,2,3-triazol-1-yl)phenyl)-5-(o-tolyl)-1,3,4-oxadiazole]",IC50,"MDAMB231 cell line; Homo sapiens, MDA-MB-231, 72 h",38.9 µM
"CCCCc1cn(-c2ccc(-c3nnc(-c4cc(C(C)C)ccc4C)o3)cc2)nn1 [Compound 6, 2-(4-(4-butyl-1H-1,2,3-triazol-1-yl)phenyl)-5-(5-isopropyl-2-methylphenyl)-1,3,4-oxadiazole]",IC50,"MDAMB231 cell line; Homo sapiens, MDA-MB-231, 72 h",34.6 µM
"CCCCc1cn(-c2ccc(-c3nnc(-c4cccc5cnccc45)o3)cc2)nn1 [Compound 7, 2-(4-(4-butyl-1H-1,2,3-triazol-1-yl)phenyl)-5-(isoquinolin-5-yl)-1,3,4-oxadiazole]",IC50,"MDAMB231 cell line; Homo sapiens, MDA-MB-231, 72 h",216 µM
"CCCCc1cn(-c2ccc(-c3nnc(-c4ccccc4OC(F)F)o3)cc2)nn1 [Compound 8, 2-(4-(4-butyl-1H-1,2,3-triazol-1-yl)phenyl)-5-(2-(difluoromethoxy)phenyl)-1,3,4-oxadiazole]",IC50,"MDAMB231 cell line; Homo sapiens, MDA-MB-231, 72 h",1000 µM
"CCCCc1cn(-c2ccc(-c3nnc(-c4ccccc4F)o3)cc2)nn1 [Compound 9, 2-(4-(4-butyl-1H-1,2,3-triazol-1-yl)phenyl)-5-(2-fluorophenyl)-1,3,4-oxadiazole]",IC50,"MDAMB231 cell line; Homo sapiens, MDA-MB-231, 72 h",43.1 µM
Clc1ccc(COC(Cn2ccnc2)c2ccc(Cl)cc2Cl)c(Cl)c1 (centres unmarked) [Miconazole],solubility at 2 h,"[1]; pH 7.4, aqueous buffer",10 to 30 µM
same,Absorbance at 620nm,"[1]; 1 µM, pH 7.4",0.037
same,Absorbance at 620nm,"[1]; 3 µM, pH 7.4",0.037
same,Absorbance at 620nm,"[1]; 10 µM, pH 7.4",0.037
same,Absorbance at 620nm,"[1]; 30 µM, pH 7.4",0.044
same,Absorbance at 620nm,"[1]; 100 µM, pH 7.4",0.053
CC(C)NCC(O)COc1cccc2ccccc12 (centres unmarked) [Propranolol],solubility at 2 h,"[1]; aqueous buffer, kinetic solubility, PBS pH 7.4, read-out: solubility",> 100 µM
same,Absorbance at 620nm,"[1]; conc. 1 µM, PBS pH 7.4, 37°C",0.038
same,Absorbance at 620nm,"[1]; conc. 3 µM, PBS pH 7.4, 37°C",0.037
same,Absorbance at 620nm,"[1]; conc. 10 µM, PBS pH 7.4, 37°C",0.039
same,Absorbance at 620nm,"[1]; conc. 30 µM, PBS pH 7.4, 37°C",0.038
same,Absorbance at 620nm,"[1]; conc. 100 µM, PBS pH 7.4, 37°C",0.037
COC(=O)[C@H]1[C@H]2C[C@@H]3c4[nH]c5cc(OC)ccc5c4CCN3C[C@H]2C[C@@H](OC(=O)c2cc(OC)c(OC)c(OC)c2)[C@@H]1OC [Reserpine],solubility at 2 h,"[1]; pH 7.4, aqueous buffer",30 to 100 µM
same,Absorbance at 620nm,"[1]; 1 µM, pH 7.4",0.037
same,Absorbance at 620nm,"[1]; 3 µM, pH 7.4",0.037
same,Absorbance at 620nm,"[1]; 10 µM, pH 7.4",0.037
same,Absorbance at 620nm,"[1]; 30 µM, pH 7.4",0.040
same,Absorbance at 620nm,"[1]; 100 µM, pH 7.4",0.058
